pIC50: −log10 of the molar value.
Biological target: T1, Human recombinant CD38 (Homo sapiens, UniProt P28907)
T1 construct: purchased BPS Bioscience
T1 sequence (P28907 1-300): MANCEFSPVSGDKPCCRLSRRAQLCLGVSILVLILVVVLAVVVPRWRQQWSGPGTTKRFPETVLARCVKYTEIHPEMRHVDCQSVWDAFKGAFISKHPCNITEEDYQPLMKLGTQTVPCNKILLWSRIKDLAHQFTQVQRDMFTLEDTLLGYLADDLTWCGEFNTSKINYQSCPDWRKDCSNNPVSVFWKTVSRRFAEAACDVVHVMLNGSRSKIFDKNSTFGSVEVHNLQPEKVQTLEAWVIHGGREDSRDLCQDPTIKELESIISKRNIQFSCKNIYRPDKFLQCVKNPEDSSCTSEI
Assay: CD38 hydrolase inhibition assay
Assay type: biochemical
Settings: glycohydrolase activity, 0.2 ng/μL CD38, 100 μM ε-NAD substrate, fluorescence excitation 300 nm / emission 410 nm
Procedure: Example 22: CD38 Hydrolase Inhibition Assay
The CD38 hydrolase inhibition assay measures the glycohydrolase activity of CD38, using an NAD analog as substrate and measuring formation of a fluorescent ADP ribose analog. A 4× buffer was prepared with 1M sucrose and 160 mM Tris-HCl at pH 7.4, for a final assay concentration of 250 mM sucrose and 40 mM Tris-HCl. The 4× solution was kept at 4° C. and warmed to room temperature before use. Tween20 was added to 1× buffer for a final concentration of 0.05%. Human recombinant CD38 (BPS Bioscience) was diluted to 0.4 ng/μL in 1× buffer and 12.5 μL added to each plate well. Inhibitors were added and DMSO content was normalized to the highest concentration on the plate, with an upper limit of 0.5%. Finally, ε-NAD was diluted to 200 μM in 1× buffer and 12.5 μL added to each plate well, for final well concentrations of 0.2 ng/μL CD38 and 100 μM ε-NAD. Plates were covered and incubated at room temperature for […], and then read on a plate reader using excitation 300 nm and emission 410 nm. […] IC50s for test compounds were determined either using GraphPad Prism software v9.3, or CDD Vault.

SMILES	pIC50
COCCOc1cc(C(=O)Nc2ccc(C(F)(F)F)nc2)cc(-n2ccnc2)c1 [Compound 112, 3-(imidazol-1-yl)-5-(2-methoxyethoxy)-N-[6-(trifluoromethyl)pyridin-3-yl]benzamide]	> 7.00
COCCOc1cc(C(=O)Nc2cncc(Cl)c2)cc(-n2ccnc2)c1 [Compound 106, N-(5-chloropyridin-3-yl)-3-(imidazol-1-yl)-5-(2-methoxyethoxy) benzamide]	> 7.00
COc1cc(C(=O)Nc2ccnc(C(F)(F)F)c2)cc(-n2ccnc2)c1 [Compound 115, 3-(imidazol-1-yl)-5-methoxy-N-[2-(trifluoromethyl)pyridin-4-yl]benzamide]	> 7.00
COCCOc1cc(C(=O)Nc2ccnc(C(F)(F)F)c2)cc(-c2cncs2)c1 [Compound 116, 3-(2-methoxyethoxy)-5-(1,3-thiazol-5-yl)-N-[2-(trifluoromethyl)pyridin-4-yl]benzamide]	> 7.00
COCCOc1cc(-n2ccnc2)cc(C(=O)Nc2ccnc(C(F)(F)F)c2)c1F [Compound 117, 2-fluoro-5-(imidazol-1-yl)-3-(2-methoxyethoxy)-N-[2-(trifluoromethyl)pyridin-4-yl]benzamide]	6.00 to 7.00
COCCOc1cc(C(=O)Nc2ccnc(C(F)(F)F)c2)cc(-c2cccnc2)c1 [Compound 120, 3-(2-methoxyethoxy)-5-(pyridin-3-yl)-N-[2-(trifluoromethyl)pyridin-4-yl]benzamide]	< 6.00
COCCOc1cc(C(=O)Nc2ccc3cn[nH]c3c2)cc(-n2ccnc2)c1 [Compound 109, 3-(imidazol-1-yl)-N-(1H-indazol-6-yl)-5-(2-methoxyethoxy) benzamide]	> 7.00
COCCOc1cc(C(=O)Nc2ccc(F)c(Cl)c2)cc(-n2ccnc2)c1 [Compound 111, N-(3-chloro-4-fluorophenyl)-3-(imidazol-1-yl)-5-(2-methoxyethoxy)benzamide]	> 7.00
COCCOc1cc(C(=O)Nc2ccc3nccnc3c2)cc(-n2ccnc2)c1 [Compound 128, 3-(imidazol-1-yl)-5-(2-methoxyethoxy)-N-(quinoxalin-6-yl) benzamide]	> 7.00
COCCOc1cc(-n2ccnc2)cc(C(=O)Nc2ccnc(C(F)(F)F)c2)c1Cl [Compound 113]	< 6.00
COCCOc1cc(C(=O)Nc2ccnc(C(F)(F)F)c2)cc(-n2cncc2CO)c1 [Compound 118]	6.00 to 7.00
COCCOc1cc(C(=O)Nc2ccc3[nH]ncc3c2)cc(-n2ccnc2)c1 [Compound 126, 3-(imidazol-1-yl)-N-(1H-indazol-5-yl)-5-(2-methoxyethoxy) benzamide]	> 7.00
COCCOc1cc(C(=O)Nc2ccc3[nH]cnc3c2)cc(-n2ccnc2)c1 [Compound 127, N-(1H-benzo[d]imidazol-6-yl)-3-(1H-imidazol-1-yl)-5-(2-methoxyethoxy)benzamide]	> 7.00
CN(C)CCOc1cc(C(=O)Nc2ccnc(C(F)(F)F)c2)cc(-n2ccnc2)c1 [Compound 107, 3-[2-(dimethylamino)ethoxy]-5-(imidazol-1-yl)-N-[2-(trifluoromethyl)pyridin-4-yl]benzamide]	> 7.00

From patent US20260224561A1, “INHIBITORS OF CYCLIC ADP RIBOSE HYDROLASE AND METHODS OF USE THEREOF” (Flagship Pioneering Innovations VI, LLC, priority 2022, published 2026)
